The results in this text go back to patent US11434240B2, “TYK2 inhibitors and uses thereof” (Nimbus Lakshmi, Inc., priority 2015, dated 2022).

For assay [1], the system named is JAK2-pSTAT5 (GM-CSF induced pSTAT5). Briefly: GM-CSF induced pSTAT5 in human PBMC. In kind it is cell-based. Conditions: 20 min, 5 ng/mL GM-CSF for 20 minutes, legend words it as IC50. As for the experimental part:
(§1) Human PBMC are isolated from buffy coat and are stored frozen for assays as needed. Cells for assay are thawed and resuspended in complete media containing serum, then cells are diluted to 1.67 E6 cells/ml so that 120 ul per well is 200,000 cells. 15 ul of compound or DMSO is added to the well at the desired concentrations and incubated at 1 hr at 37 C. 15 ul of stimulus (final concentration of 1.7 ng/mL IL-12) is added for 30 minutes prior to pSTAT4 and total STAT4 analysis using cell lysates prepared and analyzed by MSD reagents as per manufacturer protocol. The final DMSO concentration of compound in the assay is 0.1%.
Cells are prepared for analysis as in the above procedure and 15 ul of GM-CSF (final concentration 5 ng/mL) is added for 20 minutes prior to pSTAT5 and total STAT5 analysis using cell lysates prepared and analyzed by MSD reagents as per manufacturer protocol. The final DMSO concentration of compound in the assay is 0.1%.

For assay [2], the system named is Tyk2-pSTAT4 (IL-12 induced pSTAT4). Briefly: IL-12 induced pSTAT4 in human PBMC. In kind it is cell-based. To be noted: 0.5 h, 1.7 ng/mL IL-12 for 30 minutes, legend words it as IC50. The protocol: as §1
In a further assay the target is JAK2 (Invitrogen) kinase (Homo sapiens (Human), UniProt O60674). Put plainly: JAK2 radioactive kinase assay. It counts as biochemical. Conditions: ATP at 10 μM. As for the experimental part: Peptide substrate, [KKSRGDYMTMQIG], (20 μM) is prepared in reaction buffer (20 mM Hepes pH 7.5, 10 mM MgCl2, 1 mM EGTA, 0.02% Brij35, 0.02 mg/mL BSA, 0.1 mM […], 2 mM DTT, 1% DMSO. TYK2 (Invitrogen) kinase is added, followed by compounds in DMSO. ^33PATP is added to initiate the reaction with ATP at 10 μM. Kinase reaction is incubated for 120 min at room temp and reactions are spotted onto P81 ion exchange paper (Whatman #3698-915), and then washed extensively in 0.75% phosphoric acid, prior to reading the radioactivity counts. For JAK2 (Invitrogen) kinase assay the peptide substrate poly[Glu:Tyr](4:1), 0.2 mg/ml is used, in the reaction carried out the same as for TYK2.
Sequence of JAK2 (Invitrogen) kinase (O60674 whole entry): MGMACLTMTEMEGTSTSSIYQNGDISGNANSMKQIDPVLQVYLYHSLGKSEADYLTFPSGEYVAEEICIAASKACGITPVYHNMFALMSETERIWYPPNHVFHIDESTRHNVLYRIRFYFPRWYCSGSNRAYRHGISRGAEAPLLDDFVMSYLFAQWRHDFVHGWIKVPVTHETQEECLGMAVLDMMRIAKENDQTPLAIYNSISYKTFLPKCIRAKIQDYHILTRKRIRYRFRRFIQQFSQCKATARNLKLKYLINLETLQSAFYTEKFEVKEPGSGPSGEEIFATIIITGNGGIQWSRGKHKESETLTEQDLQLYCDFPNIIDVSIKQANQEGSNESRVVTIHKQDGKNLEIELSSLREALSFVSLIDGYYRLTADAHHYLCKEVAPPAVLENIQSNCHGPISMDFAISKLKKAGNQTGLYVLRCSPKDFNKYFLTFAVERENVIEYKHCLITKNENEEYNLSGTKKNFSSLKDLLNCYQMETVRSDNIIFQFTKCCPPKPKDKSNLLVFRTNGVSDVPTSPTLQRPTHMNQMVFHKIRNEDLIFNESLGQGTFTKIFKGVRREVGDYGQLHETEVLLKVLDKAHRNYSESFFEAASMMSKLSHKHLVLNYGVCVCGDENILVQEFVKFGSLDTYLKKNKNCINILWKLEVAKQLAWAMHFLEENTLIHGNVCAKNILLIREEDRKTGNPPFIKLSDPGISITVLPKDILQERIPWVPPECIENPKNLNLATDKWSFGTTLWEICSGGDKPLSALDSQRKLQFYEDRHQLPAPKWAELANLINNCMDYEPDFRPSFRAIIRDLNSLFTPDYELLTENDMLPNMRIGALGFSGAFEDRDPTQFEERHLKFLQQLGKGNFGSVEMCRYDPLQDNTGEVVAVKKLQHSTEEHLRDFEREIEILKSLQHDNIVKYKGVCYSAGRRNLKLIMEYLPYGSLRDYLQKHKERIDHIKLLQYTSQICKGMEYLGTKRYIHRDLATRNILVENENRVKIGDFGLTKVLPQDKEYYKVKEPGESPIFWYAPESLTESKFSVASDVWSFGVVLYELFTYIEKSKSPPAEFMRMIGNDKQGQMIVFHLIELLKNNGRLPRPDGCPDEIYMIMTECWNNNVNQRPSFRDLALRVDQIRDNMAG

The EC50 is the concentration needed to bring the measured effect to its halfway point. A high value points to a need for much substance. One may read the Ki as a measure of affinity in units of concentration, obtained from inhibition or displacement.

Where only a bound is given, the exact number is not on record here.

The molecule `CN1CCN(c2ccn(-c3cc(-c4c(F)cccc4F)nc4c3C(=O)NC4)n2)CC1` [I-5, 2-(2,6-difluorophenyl)-4-(3-(4-methylpiperazin-1-yl)-1H-pyrazol-1-yl)-6,7-dihydro-5H-pyrrolo[3,4-b]pyridin-5-one] showed an EC50 in assay [1] of more than 2000 nM. With `N#Cc1cccc(F)c1-c1cc(-n2ccc(N3CCC(N4CCOCC4)CC3)n2)c2c(n1)CNC2=O` [I-59, 3-fluoro-2-(4-(3-(4-morpholinopiperidin-1-yl)-1H-pyrazol-1-yl)-5-oxo-6,7-dihydro-5H-pyrrolo[3,4-b]pyridin-2-yl)benzonitrile], the EC50 in assay [2] lay in the range of 100 to 2000 nM; in assay [1] (Homo sapiens, PBMC), 100 to 2000 nM.

`CO[C@@H]1CN(c2ccn(-c3cc(-c4c(F)cccc4C#N)nc4c3C(=O)NC4)n2)C[C@@H]1O` [I-154, 3-fluoro-2-(4-(3-((3S,4R)-3-hydroxy-4-methoxypyrrolidin-1-yl)-1H-pyrazol-1-yl)-5-oxo-6,7-dihydro-5H-pyrrolo[3,4-b]pyridin-2-yl)benzonitrile]: the Ki on JAK2 (Invitrogen) kinase was 0.1 to 10 nM.
